Columns and labels:
Assay type in all cases: in vivo
Aquilaria trees [1] = assay: Drill wounds treated with different compounds to stimulate agarwood production (Example 5); set-up: Area of discoloration: unit not given here; conditions: for effect on area of discoloration (in words): Example 5, at the concentrations tested; for Area of discoloration: approx 0.1-0.2 g per drill wound; for microscopic observations of cells around treated wounds: Example 5; for agarwood induction versus control wounds (in words): Example 5 conclusion
Protocol: To test if different types of compounds could stimulate agarwood production, ⅝ inch drill wounds were made approximately 5 cm into the main trunk of young plantation trees and different materials used to treat the drill wounds. Chemicals used were from Sigma Chemicals Inc. St. Louis, Mo. or Mallinckrodt Inc. Paris, Ky. One drill wound per tree received no treatment and others received one of the following treatments:
Chitosan—purified chitin approximately 0.2 g of chitin was added per wound
Formic acid—approximately 0.1 g of formic acid was added per wound
Sodium chloride—approximately 0.2 g added per wound
Cellobiose—approximately 0.2 grams added per wound
Lime—approximately 0.1 g calcium carbonate added per wound
Trees were harvested after 12, 18 and 21 months.

Aquilaria trees [2] = assay: Wound types and treatments on plantation trees, Phu Quoc Island, image analyzer area (Example 8); conditions: for effect on area of discoloration and agarwood resin (in words): Example 8 conclusion; for Area of discoloration/resin: after 15 months, longitudinal plane, mean of 8 wounds, approx 0.3 g of agent mixed with sterile Aquilaria sawdust, drill wound plus 5x5 cm bark removed
From the text: Fourteen plantation grown trees on Phu Quoc Island were used to test different treatments. Each tree received 8 wounds that were spiraled up the main trunk of the tree separated by approximately 20 cm. A range of different types of wounds and treatments as well as controls were made on each tree. […] Trees were harvested after 15 months and taken to the laboratory for analyses.
Treatments Included: • 1. A surface wound approximately 5×5 cm was made by cutting the bark and removing the bark tissue to expose the xylem. No drill hole was made. • 3. A ⅝ inch drill wound was made approximately 5 cm into the xylem and a 5×5 cm section of the bark removed around the drill hole and approximately 0.3 g sterile Aquilaria sawdust added to the drill wound. • 4. Same as #3 but with approximately 0.3 g of a 1:1 ratio of ferrous chloride and sterile Aquilaria sawdust added to the drill wound. • 5. Same as #3 with approximately 0.3 g of a 1:2 ratio of NaCl and sterile Aquilaria sawdust added to the drill wound. • 6. Same as #3 but with approximately 0.3 g of a 1:4 ratio of Difco yeast extract and sterile Aquilaria sawdust. • 7. Same as #3 but with approximately 0.3 g of a 1:1 ratio of sodium bisulfite and sterile Aquilaria sawdust. • 8. Same as #3 but with approximately 0.3 g of a 1:2:4 ratio of Difco nutrient broth: Difco malt extract: sterile Aquilaria sawdust.
After 15 months, 8 trees were harvested and brought to the laboratory for analyses. The area of discoloration and resin formation was determined by splitting the tree through the wounded region and area affected measured using an image analyzer. Area (cm^2) was determined for all wounds in the longitudinal plane. Each value is a mean of 8 wounds.

Aquilaria trees [3] = assay: Scribed drill wounds with Basidiomycota cultures or chemicals in sawdust, Kon Tum and Nui Cam (Example 9); conditions: for effect on area of discoloration and agarwood resin (in words): Example 9 conclusion, sodium bisulfite 1:4, salicylic acid 1:2, ferrous chloride 1:4 in sawdust; for Area of discoloration: after 15 months, mean of two trees, chemicals approx 0.5 g in sterile Aquilaria sawdust
From the text: Young trees growing at two sites, in home gardens and on agricultural land (Kon Tum, Vietnam and Nui Cam, Vietnam), received 8 wounds per tree. Drill wounds ⅝ inch diameter were drilled approximately 5 cm into the main trunk of each tree in a spiral fashion separated by approximately 20 cm. All drill wounds were scribed to remove a 5×5 cm area of bark around the wound. Fungal treatments consisted of three different types of Basidiomycota obtained from Aquilaria trees in Vietnam. These isolates were not identified to genus but culture morphology indicated they were different genera. Cultures were grown on sterile rice supplemented with malt extract. Cultures were grown for three weeks before inoculation.
Treatments Included: • 1. Control wound receiving sterile rice • 2. Fungal culture 97-14-5 • 3. Fungal culture 97-13-7 • 4. Fungal culture 97-11-25 • 5. Control wound receiving 5 g sterile Aquilaria sawdust • 6. Approximately 0.5 g of a 1:4 ratio of sodium bisulfite and sterile Aquilaria sawdust • 7. Approximately 0.5 g of a 1:2 ratio of salicylic acid in sterile Aquilaria sawdust • 8. Approximately 0.5 g of a 1:4 ratio of ferrous chloride in sterile Aquilaria sawdust
After 15 months two trees were harvested from each location and brought to the laboratory for analyses. The mean area for each type of wound was calculated.

Row | SMILES | effect on area of discoloration (in words) (Aquilaria trees [1]) | Area of discoloration (Aquilaria trees [1]; after 12 months) | Area of discoloration (Aquilaria trees [1]; after 18 months) | Area of discoloration (Aquilaria trees [1]; after 21 months) | effect on area of discoloration and agarwood resin (in words) (Aquilaria trees [2]) | Area of discoloration/resin (Aquilaria trees [2]) [cm^2] | effect on area of discoloration and agarwood resin (in words) (Aquilaria trees [3]) | Area of discoloration (Aquilaria trees [3]; Location Kon Tum) [cm^2] | Area of discoloration (Aquilaria trees [3]; Location Nui Cam) [cm^2] | microscopic observations of cells around treated wounds (Aquilaria trees [1]) | agarwood induction versus control wounds (in words) (Aquilaria trees [1])
1 | O=C[C@H](O)[C@@H](O)[C@H](O[C@@H]1O[C@H](CO)[C@@H](O)[C@H](O)[C@H]1O)[C@H](O)CO [Cellobiose] | do not increase the area of discoloration | 9.9 | 20.3 | 7.4 |  |  |  |  |  |  | 
2 | [Cl][Fe][Cl] [Ferrous chloride, ferrous chloride] |  |  |  |  | increase the area of discoloration within the tree and the amount of agarwood resin formed | 112.5 | did not produce large areas of discoloration | 18.4 | 23.3 |  | 
3 | O=CO [Formic acid] |  | 28.5 | 18.6 | 31.8 |  |  |  |  |  | react extensively and phloem cells are filled with resin | induce greater amounts of agarwood than the control wounds
4 | O=C([O-])[O-].[Ca+2] [Lime, calcium carbonate] | do not increase the area of discoloration | 10.0 | 18.7 | 9.7 |  |  |  |  |  |  | 
5 | [Cl-].[Na+] [NaCl, Sodium chloride] |  | 49.3 | 44.7 | 36.4 | increase the area of discoloration within the tree and the amount of agarwood resin formed | 48.1 |  |  |  | react extensively and phloem cells are filled with resin | induce greater amounts of agarwood than the control wounds
6 | O=C(O)c1ccccc1O [Salicylic acid, salicylic acid] |  |  |  |  |  |  | did not produce large areas of discoloration | 16.9 | 25.5 |  | 
7 | O=S([O-])O.[Na+] [Sodium bisulfite, sodium bisulfite] |  |  |  |  | increase the area of discoloration within the tree and the amount of agarwood resin formed | 182.0 | reduced amount of discoloration and agarwood resin | 52.3 | 56.9 |  | 

From US7638145B2, “Cultivated agarwood” (Regents of the University of Minnesota, priority 2001, dated 2009)
